Measured values taken from patent US20230181681A1, “PEPTIDE FOR SUPPRESSING CORONAVIRUS AND USE THEREOF” (priority 2020, published 2023).
Ends that are not written are not given here.

Assays:
[1] = test system: HCoV-OC43; experiment: HCoV-OC43 S and N protein production in infected Vero cells (Western blotting, confocal microscopy); type: cell-based; details: 0.1 MOI, peptide 6 hours after infection, 48 h, FIGS. 20 to 22
[2] = test system: SARS-CoV-2; type: cell-based
[3] = test system: MERS-CoV; type: cell-based
[4] = test system: HCoV-OC43; experiment: HCoV-OC43 production in Vero cells by plaque formation assay; type: cell-based; details: 0.1 MOI, 2 μM peptide 6 hours after infection, 48 hours, plaque formation test, FIG. 23
[5] = test system: interaction of MERS-CoV Spike CD with MERS-CoV N protein; type: binding
[6] = test system: MERS-CoV N protein; type: binding

Substance: CCTGCGTSCFKKCGGCCDDYTGYQELVIKTSHDD [Spike CD-OC43]
- production of S protein and N protein of HCoV-OC43 [1]: no effect was observed

Substance: NH2-d-RRRRRRRRRR-AQARRKNYGQLDIFP-COOH [R-CP-1]
- reduction of SARS-CoV-2 production [2]: 40%
- MERS-CoV plaque formation [3]: no effect was observed

Substance: R-Spike CD-OC43 (RRRRRRRRRCCTGCGTSCFKKCGGCCDDYTGYQELVIKTSHDD; not fully specified; cysteine pairing not given here)
- reduction of HCoV-OC43 production [4]: 20%

Substance: TGCGTNCMGKLKCNRC [Spike CD-F]
- relative activity in inhibiting the interaction between Spike CD-Full and N protein [5]: highest activity
- binding of Spike CD peptides with N protein [6]: can tightly bind with N protein
